Laboratory results reported in patent US9328122B2, “7-substituted Hanfangichin B derivative, and preparation method and use thereof” (HANGZHOU BENSHENG PHARMACEUTICAL CO., LTD., priority 2012, dated 2016).
In brackets after ≈: the same amount, converted by molar mass.

Tests used:
[1] = system: RPMI 8226 (multiple myeloma) cells; experiment: MTT cell growth inhibition, multiple myeloma cells; assay type: cell-based, human; conditions: for IC50 / IC90: Homo sapiens, RPMI 8226, 72 h, MTT; for IC50: read-out: IC50; for IC90: read-out: IC90
Method: Myeloma cell lines: RPMI8226 (multiple myeloma), purchased from Fuxiang Bio-tech Co. Ltd., Shanghai, China.
6000 well-growing cells were obtained and inoculated into wells of a 96-well cell culture plate. The culture medium was a RPMI-1640 cell culture medium containing 10% fetal bovine serum. After adding the 7-substituted fangchinoline derivatives of different concentrations the next day and mixing uniformly, the plate was placed in a carbon dioxide cell incubator (5% CO2) at 37° C. and incubated for 72 hours. Then the viable cell concentration was determined by the MTT method.

[2] = system: KCL-22M transplanted tumor; experiment: Transplanted tumor of leukemia in nude mice; assay type: in vivo, BALBc nude mice
Method: Leukemia cell lines: KCL-22M (human chronic myeloid leukemia mutant strain);
The mice were administered from the second day after the inoculation. […] The administrations were successive for 10 days. […] On Day 25, the mice were sacrificed and the tumors are taken out and weighed.

[3] = system: Hep G2 transplanted tumor; experiment: Transplanted tumor of liver cancer in nude mice
Method: Liver cancer cell lines: Hep G2 (human liver cancer cell line);
Animal: BALBc nude mice (immunodeficient mice), 8 weeks, female, purchased from Shanghai Laboratory Animal Center of Chinese Academy of Sciences, China.
Under sterile conditions, the Hep G2 cells in the logarithmic growth phase were respectively collected and injected subcutaneously in an amount of 2.3×10^7/0.2 mL/nude mice (cell viability >90%) into the left subaxillary of the nude mice, thus establishing a transplanted tumor model of liver cancer in nude mice. The mice were administered from the second day after inoculation. The experimental group was intragastrically administered with the experimentally designed amount, the negative control group was intragastrically administered with sterile water, and the positive control group was intragastrically administered with erlotinib hydrochloride. Each mouse was intragastrically administered in 0.4 ml each time and 3 times a day, at 8:00, 14:00 and 20:00, with 6-hour intervals. The administrations were successive for 10 days. The day before administration was deemed as Day 0 and the weight and tumor size of the mice were determined every 5 days to produce a dynamic plot on weight and tumor growth (the experimental results are presented as mean±SD). On Day 28, the mice were sacrificed and the tumors were taken out and weighed. The tumor inhibition rate (%) after the effect of the medicament was calculated based on a tumor inhibition rate of the control group being zero.
The experimental data for each group were analyzed by using the One-way ANOVA method in the SPSS 19.0 statistical software and were compared with the control group for significance of difference.

Compound	IC50 [1] [µg/mL]	IC90 [1] [µg/mL]	further results
COc1ccc2cc1Oc1ccc(cc1)C[C@H]1c3cc(c(OC)cc3CCN1C)Oc1c(OS(=O)(=O)c3ccc(C)cc3)c(OC)cc3c1[C@H](C2)N(C)CC3 [BS-FC-102]	0.14 (≈ 0.184 µM)	0.77 (≈ 1.01 µM)	
COc1ccc2cc1Oc1ccc(cc1)C[C@H]1c3cc(c(OC)cc3CCN1C)Oc1c(OCC(O)CN3CCCC(C)C3)c(OC)cc3c1[C@H](C2)N(C)CC3 (some centres unmarked) [BS-FC-410]	< 0.125	0.25 (≈ 0.327 µM)	
COc1ccc2cc1Oc1ccc(cc1)C[C@H]1c3cc(c(OC)cc3CCN1C)Oc1c(OCc3ccc(C(F)(F)F)cc3)c(OC)cc3c1[C@H](C2)N(C)CC3 [BS-FC-216]	0.13 (≈ 0.17 µM)	0.77 (≈ 1 µM)	
COc1ccc2cc1Oc1ccc(cc1)C[C@H]1c3cc(c(OC)cc3CCN1C)Oc1c(OC3CCCC3)c(OC)cc3c1[C@H](C2)N(C)CC3 [BS-FC-220]	0.12 (≈ 0.177 µM)	0.5 (≈ 0.739 µM)	
COc1cc(OC)cc(C(=O)Oc2c(OC)cc3c4c2Oc2cc5c(cc2OC)CCN(C)[C@H]5Cc2ccc(cc2)Oc2cc(ccc2OC)C[C@@H]4N(C)CC3)c1 [BS-FC-311]	0.13 (≈ 0.168 µM)	0.49 (≈ 0.634 µM)	
COc1ccc2cc1Oc1ccc(cc1)C[C@H]1c3cc(c(OC)cc3CCN1C)Oc1c(OCc3cccc(F)c3F)c(OC)cc3c1[C@H](C2)N(C)CC3 [BS-FC-204]	0.42 (≈ 0.572 µM)	1.58 (≈ 2.15 µM)	
COc1ccc2cc1Oc1ccc(cc1)C[C@H]1c3cc(c(OC)cc3CCN1C)Oc1c(OCC(O)CN3CCSCC3)c(OC)cc3c1[C@H](C2)N(C)CC3 (some centres unmarked) [BS-FC-417]	0.02 (≈ 0.026 µM)	0.5 (≈ 0.651 µM)	anti-RPMI8226 activity increase over fangchinoline ([1]; relative to fangchinoline, Table 2): 2 fold
COc1ccc2cc1Oc1ccc(cc1)C[C@H]1c3cc(c(OC)cc3CCN1C)Oc1c(OC(=O)c3ccc(N(C)C)cc3)c(OC)cc3c1[C@H](C2)N(C)CC3 [BS-FC-308]	0.12 (≈ 0.159 µM)	0.25 (≈ 0.331 µM)	animal's weight during the administration (toxic and side effects) ([2]; 30 mg/kg/time, three administrations per day, weight rebounded after administration was stopped): weight was reduced; Mass of tumor ([2]; KCL-22M transplanted tumor, Day 25, 30 mg/kg/time intragastric 3 times a day for 10 days): 521 ± 249 mg; Tumor Inhibition rate ([2]; KCL-22M transplanted tumor, Day 25, 30 mg/kg/time intragastric 3 times a day for 10 days, control = 0): 74.45%; Body Weight (g) Initial ([2]; KCL-22M tumor nude mice, before administration, 30 mg/kg/time intragastric 3 times a day, mean±SD): 19.5 ± 0.2 g; Body Weight (g) Final ([2]; KCL-22M tumor nude mice, final, 30 mg/kg/time intragastric 3 times a day for 10 days, mean±SD): 15.4 ± 1.51 g; Mass of tumor ([3]; Hep G2 transplanted tumor, Day 28, intragastric 3 times a day for 10 days, BS-FC-308 35 mg/kg/time, erlotinib hydrochloride 20 mg/kg/time): 566 ± 112.26 mg; Tumor Inhibition rate ([3]; Hep G2 transplanted tumor, Day 28, intragastric 3 times a day for 10 days, BS-FC-308 35 mg/kg/time, erlotinib hydrochloride 20 mg/kg/time, control = 0): 55.82%; Body Weight (g) Initial ([3]; Hep G2 tumor nude mice, before administration, intragastric 3 times a day, BS-FC-308 35 mg/kg/time, erlotinib hydrochloride 20 mg/kg/time, mean±SD): 21.8 ± 0.62 g; Body Weight (g) Final ([3]; Hep G2 tumor nude mice, final, intragastric 3 times a day for 10 days, BS-FC-308 35 mg/kg/time, erlotinib hydrochloride 20 mg/kg/time, mean±SD): 19.0 ± 0.49 g; weight of the Hep G2 transplanted tumors (FIG. 3) ([3]; nude mice): significantly reduces
COc1ccc2cc1Oc1ccc(cc1)C[C@H]1c3cc(c(OC)cc3CCN1C)Oc1c(OCC3CC3)c(OC)cc3c1[C@H](C2)N(C)CC3 [BS-FC-208]	0.13 (≈ 0.196 µM)	0.5 (≈ 0.754 µM)	
C=CCN(C)CC(O)COc1c(OC)cc2c3c1Oc1cc4c(cc1OC)CCN(C)[C@H]4Cc1ccc(cc1)Oc1cc(ccc1OC)C[C@@H]3N(C)CC2 (some centres unmarked) [BS-FC-409]	0.04 (≈ 0.0544 µM)	0.5 (≈ 0.679 µM)	
COc1ccc2cc1Oc1ccc(cc1)C[C@H]1c3cc(c(OC)cc3CCN1C)Oc1c(OCC(O)CN3CCCCC3)c(OC)cc3c1[C@H](C2)N(C)CC3 (some centres unmarked) [BS-FC-403]	< 0.125	0.13 (≈ 0.173 µM)	
COc1ccc2cc1Oc1ccc(cc1)C[C@H]1c3cc(c(OC)cc3CCN1C)Oc1c(OCC(O)CN3CCN(C#N)CC3)c(OC)cc3c1[C@H](C2)N(C)CC3 (some centres unmarked) [BS-FC-421]	< 0.125	0.25 (≈ 0.322 µM)	
COc1ccc2cc1Oc1ccc(cc1)C[C@H]1c3cc(c(OC)cc3CCN1C)Oc1c(OC(=O)C3CC3)c(OC)cc3c1[C@H](C2)N(C)CC3 [BS-FC-304]	0.16 (≈ 0.236 µM)	0.98 (≈ 1.45 µM)	
COc1ccc2cc1Oc1ccc(cc1)C[C@H]1c3cc(c(OC)cc3CCN1C)Oc1c(OS(=O)(=O)c3ccccc3)c(OC)cc3c1[C@H](C2)N(C)CC3 [BS-FC-104]	0.12 (≈ 0.16 µM)	0.5 (≈ 0.668 µM)	
C=C(C)COc1c(OC)cc2c3c1Oc1cc4c(cc1OC)CCN(C)[C@H]4Cc1ccc(cc1)Oc1cc(ccc1OC)C[C@@H]3N(C)CC2 [BS-FC-221]	0.11 (≈ 0.166 µM)	0.46 (≈ 0.694 µM)	
COc1ccc2cc1Oc1ccc(cc1)C[C@H]1c3cc(c(OC)cc3CCN1C)Oc1c(OC(=O)c3c(F)cccc3Cl)c(OC)cc3c1[C@H](C2)N(C)CC3 [BS-FC-315]	0.13 (≈ 0.17 µM)	0.48 (≈ 0.627 µM)	
C=CCOc1c(OC)cc2c3c1Oc1cc4c(cc1OC)CCN(C)[C@H]4Cc1ccc(cc1)Oc1cc(ccc1OC)C[C@@H]3N(C)CC2 [BS-FC-213]	0.12 (≈ 0.185 µM)	0.5 (≈ 0.771 µM)	
COc1ccc2cc1Oc1ccc(cc1)C[C@H]1c3cc(c(OC)cc3CCN1C)Oc1c(OCC(O)CNCC3CC3)c(OC)cc3c1[C@H](C2)N(C)CC3 (some centres unmarked) [BS-FC-405]	0.05 (≈ 0.0679 µM)	0.44 (≈ 0.598 µM)	
